Data from patent publication US6855710B2, “Substituted indolines with an inhibitory effect on various kinases and complexes of CDKs” (Boehringer Ingelheim Pharma KG, priority 1998, dated 2005).

SMILES | melting point
COC1CCN(CCc2ccc(N/C(=C3\C(=O)Nc4ccc([N+](=O)[O-])cc43)c3ccccc3)cc2)CC1 [Example 261, (Z)-3-{1-[4-(2-(4-methoxypiperidino)-ethyl)-phenylamino]-1-phenyl-methylidene}-5-nitro-2-indolinone] | 212 to 214 °C
CCOC(=O)C1CCN(CCc2ccc(N/C(=C3\C(=O)Nc4ccc([N+](=O)[O-])cc43)c3ccccc3)cc2)CC1 [Example 262, (Z)-3-{1-[4-(2-(4-ethoxycarbonyl-piperidino)-ethyl)-phenylamino]-1-phenyl-methylidene}-5-nitro-2-indolinone] | 208 to 213 °C
O=C1Nc2ccc([N+](=O)[O-])cc2/C1=C(/Nc1ccc(CCN2CCC(C(=O)O)CC2)cc1)c1ccccc1 [Example 263, (Z)-3-{1-[4-(2-(4-carboxypiperidino)-ethyl)-phenylamino]-1-phenyl-methylidene}-5-nitro-2-indolinone] | 287 to 288 °C
CN(C)C(=O)C1CCN(CCc2ccc(N/C(=C3\C(=O)Nc4ccc([N+](=O)[O-])cc43)c3ccccc3)cc2)CC1 [Example 264, (Z)-3-{1-[4-(2-(4-dimethylaminocarbonyl-piperidino)-ethyl)-phenylamino]-1-phenyl-methylidene}-5-nitro-2-indolinone] | 288 °C (dec.)
CN(C)Cc1ccc(N/C(=C2\C(=O)Nc3ccccc32)c2ccccc2)cc1 [Example 266, (Z)-3-{1-[4-(dimethylaminomethyl)-phenylamino]-1-phenyl-methylidene}-2-indolinone] | 237 to 240 °C
CN(C)CCc1ccc(N/C(=C2\C(=O)Nc3ccccc32)c2ccccc2)cc1 [Example 268, (Z)-3-{1-[4-(2-dimethylamino-ethyl)-phenylamino]-1-phenyl-methylidene}-2-indolinone] | 244 to 246 °C
O=C1Nc2ccc([N+](=O)[O-])cc2/C1=C(/Nc1ccc(CNc2ncccn2)cc1)c1ccccc1 [Example 271, (Z)-3-{1-[4-(pyrimidin-2-ylaminomethyl)-phenylamino]-1-phenyl-methylidene}-5-nitro-2-indolinone] | 284 to 286 °C
CN(Cc1ccc(N/C(=C2\C(=O)Nc3ccc([N+](=O)[O-])cc32)c2ccccc2)cc1)c1ncccn1 [Example 272, (Z)-3-{1-[4-((N-methyl-N-pyrimidin-2-yl-amino)-methyl)-phenylamino]-1-phenyl-methylidene}-5-nitro-2-indolinone] | 236 to 239 °C
O=C1Nc2ccc([N+](=O)[O-])cc2/C1=C(/Nc1ccc(CNc2ccccn2)cc1)c1ccccc1 [Example 279, (Z)-3-{1-[4-(pyridine-2-ylaminomethyl)-phenylamino]-1-phenyl-methylidene}-5-nitro-2-indolinone] | 266 to 268 °C
CN(C)CCOc1ccc(N/C(=C2\C(=O)Nc3ccccc32)c2ccccc2)cc1 [Example 284, (Z)-3-{1-[4-(2-dimethylaminoethyloxy)-phenylamino]-1-phenyl-methylidene}-2-indolinone] | 258 to 260 °C
O=C1Nc2ccccc2/C1=C(/Nc1ccc(OCCN2CCCCC2)cc1)c1ccccc1 [Example 285, (Z)-3-{1-[4-(2-piperidinoethyloxy)-phenylamino]-1-phenyl-methylidene}-2-indolinone] | 198 to 200 °C
CN(C)CCCOc1ccc(N/C(=C2\C(=O)Nc3ccccc32)c2ccccc2)cc1 [Example 286, (Z)-3-{1-[4-(3-dimethylaminopropyloxy)-phenylamino]-1-phenyl-methylidene}-2-indolinone] | 215 to 217 °C
O=C1Nc2ccccc2/C1=C(/Nc1ccc(OCCCN2CCCCC2)cc1)c1ccccc1 [Example 287, (Z)-3-{1-[4-(3-piperidinopropyloxy)-phenylamino]-1-phenyl-methylidene}-2-indolinone] | 223 to 225 °C

The remaining lines, values ahead:

melting point | SMILES
274 to 276 °C | O=C1Nc2ccc([N+](=O)[O-])cc2/C1=C(/Nc1ccc(CCN2CCC(O)CC2)cc1)c1ccccc1 [Example 260, (Z)-3-{1-[4-(2-(4-hydroxypiperidino)-ethyl)-phenylamino]-1-phenyl-methylidene}-5-nitro-2-indolinone]
217 to 222 °C | O=C1Nc2ccc([N+](=O)[O-])cc2/C1=C(/Nc1ccc(CCN2CCCCCC2)cc1)c1ccccc1 [Example 265, (Z)-3-{1-[4-(2-hexamethyleneimino-ethyl)-phenylamino]-1-phenyl-methylidene}-5-nitro-2-indolinone]
249 to 254 °C (dec.) | O=C1Nc2ccc([N+](=O)[O-])cc2/C1=C(/Nc1ccc(CCN2CC=CCC2)cc1)c1ccccc1 [Example 269, (Z)-3-{1-[4-(2-(3,6-Dihydro-2H-pyridin-1-yl)-ethyl)-phenylamino]-1-phenyl-methylidene}-5-nitro-2-indolinone]
222 to 225 °C | O=C1Nc2ccc([N+](=O)[O-])cc2/C1=C(/Nc1ccc(CN2CC=CCC2)cc1)c1ccccc1 [Example 270, (Z)-3-{1-[4-(3,6-Dihydro-2H-pyridin-1-ylmethyl)-phenylamino]-1-phenyl-methylidene}-5-nitro-2-indolinone]
228 to 229 °C | O=C1Nc2ccc([N+](=O)[O-])cc2/C1=C(/Nc1ccc(CN2CCC2)cc1)c1ccccc1 [Example 273, (Z)-3-{1-[4-(Azetidin-1-yl-methyl)-phenylamino]-1-phenyl-methylidene}-5-nitro-2-indolinone]
220 to 221 °C (dec.) | O=C1Nc2ccc([N+](=O)[O-])cc2/C1=C(/Nc1ccc(CNC2CC2)cc1)c1ccccc1 [Example 274, (Z)-3-{1-[4-(cyclopropylaminomethyl)-phenylamino]-1-phenyl-methylidene}-5-nitro-2-indolinone]
216 to 217 °C | CN(Cc1ccc(N/C(=C2\C(=O)Nc3ccc([N+](=O)[O-])cc32)c2ccccc2)cc1)C1CC1 [Example 275, (Z)-3-{1-[4-((N-cyclopropyl-N-methyl-amino)-methyl)-phenylamino]-1-phenyl-methylidene}-5-nitro-2-indolinone]
231 °C | O=C1Nc2ccc([N+](=O)[O-])cc2/C1=C(/Nc1ccc(CNC2CCCC2)cc1)c1ccccc1 [Example 276, (Z)-3-{1-[4-(cyclopentylaminomethyl)-phenylamino]-1-phenyl-methylidene}-5-nitro-2-indolinone]
228 °C | CN(Cc1ccc(N/C(=C2\C(=O)Nc3ccc([N+](=O)[O-])cc32)c2ccccc2)cc1)C1CCCC1 [Example 277, (Z)-3-{1-[4-(N-cyclopentyl-N-methyl-aminomethyl)-phenylamino]-1-phenyl-methylidene}-5-nitro-2-indolinone]
245 °C | O=C1Nc2ccc([N+](=O)[O-])cc2/C1=C(/Nc1ccc(CNC2CCCCC2)cc1)c1ccccc1 [Example 278, (Z)-3-{1-[4-(cyclohexylaminomethyl)-phenylamino]-1-phenyl-methylidene}-5-nitro-2-indolinone]
269 °C (dec.) | CN(C)CCCc1ccc(N/C(=C2\C(=O)Nc3ccc([N+](=O)[O-])cc32)c2ccccc2)cc1 [Example 283, (Z)-3-{1-[4-(3-dimethylamino-propyl)-phenylamino]-1-phenyl-methylidene}-5-nitro-2-indolinone]
